The values below come from US12157736B2, “Spiro-lactam NMDA modulators and methods of using same” (Tenacia Biotechnology (Hong Kong) Co., Limited, priority 2016, dated 2024).

Series [1] concerns rats. Put plainly: Porsolt forced swim test. It counts as in vivo, Sprague Dawley rats. The protocol:
A non-clinical in vivo pharmacology study (Porsolt assay) was performed to measure antidepressant-like effects. A negative control (0.5% sodium carboxymethyl cellulose in 0.9% sterile saline vehicle) and a positive control (fluoxetine) are shown for comparison against test compound. The study allowed for the evaluation of the effects of each compound on the Porsolt forced swim test as assessed by the rats' response (reduced floating time) during a 5-minute swimming test.
Male 2-3 month old Sprague Dawley rats were used (Harlan, Indianapolis, IN). Rats were housed in Lucite cages with aspen wood chip bedding, maintained on a 12:12 light:dark cycle (lights on at 5 AM), and given ad libitum access to Purina lab chow (USA) and tap water throughout the study.
The Porsolt forced swim test adapted for use in rats was performed as described by Burgdorf et al., (The long-lasting antidepressant effects of rapastinel (GLYX-13) are associated with a metaplasticity process in the medial prefrontal cortex and hippocampus. Neuroscience 308:202-211, 2015). Animals were placed in a 46 cm tall×20 cm in diameter clear glass tube filled to 30 cm with tap water (23±1° C.) for 15 min on the first day (habituation) and 5 min on the subsequent test day. Positive control fluoxetine was dosed 3 times (24 h, 5 h and 1 h) prior to testing. Animals were tested 1 h or 24 h post-dosing with the test compounds or vehicle. Animals received a 15 min habituation session 1 day before the 5 min test. Water was changed after every other animal. Animals were videotaped, and floating time as defined as the minimal amount of effort required to keep the animals head above water was scored offline by a blinded experimenter with high inter-rater reliability (Pearson's r>0.9).
Each compound tested at dose level shown. Significance vs. vehicle group for each experiment is marked. […] A compound marked “No” was not statistically significant from vehicle. Data was averaged for test compound and vehicle groups (N approximately 8 per group) and the percent reduction in floating for group treated with test compound relative to group treated with vehicle is shown.

Another series can be described thus: IV pharmacokinetics. It counts as in vivo, Sprague Dawley rats. The note with it: rat, 2 mg/kg, normal saline. As to the method:
Sprague Dawley rats were dosed intravenously using a normal saline formulation containing 2 mg/kg of the compounds identified in the below table. The table below summarizes the results of the IV pharmacokinetics.

The target of another series is T1, NMDAR2C (Homo sapiens, UniProt Q14957).
T1 construct: expressed in transfected cells; host or cells: HEK cells (membrane extract)
T1 sequence (Q14957 20-1233, species assumed, other chains not shown): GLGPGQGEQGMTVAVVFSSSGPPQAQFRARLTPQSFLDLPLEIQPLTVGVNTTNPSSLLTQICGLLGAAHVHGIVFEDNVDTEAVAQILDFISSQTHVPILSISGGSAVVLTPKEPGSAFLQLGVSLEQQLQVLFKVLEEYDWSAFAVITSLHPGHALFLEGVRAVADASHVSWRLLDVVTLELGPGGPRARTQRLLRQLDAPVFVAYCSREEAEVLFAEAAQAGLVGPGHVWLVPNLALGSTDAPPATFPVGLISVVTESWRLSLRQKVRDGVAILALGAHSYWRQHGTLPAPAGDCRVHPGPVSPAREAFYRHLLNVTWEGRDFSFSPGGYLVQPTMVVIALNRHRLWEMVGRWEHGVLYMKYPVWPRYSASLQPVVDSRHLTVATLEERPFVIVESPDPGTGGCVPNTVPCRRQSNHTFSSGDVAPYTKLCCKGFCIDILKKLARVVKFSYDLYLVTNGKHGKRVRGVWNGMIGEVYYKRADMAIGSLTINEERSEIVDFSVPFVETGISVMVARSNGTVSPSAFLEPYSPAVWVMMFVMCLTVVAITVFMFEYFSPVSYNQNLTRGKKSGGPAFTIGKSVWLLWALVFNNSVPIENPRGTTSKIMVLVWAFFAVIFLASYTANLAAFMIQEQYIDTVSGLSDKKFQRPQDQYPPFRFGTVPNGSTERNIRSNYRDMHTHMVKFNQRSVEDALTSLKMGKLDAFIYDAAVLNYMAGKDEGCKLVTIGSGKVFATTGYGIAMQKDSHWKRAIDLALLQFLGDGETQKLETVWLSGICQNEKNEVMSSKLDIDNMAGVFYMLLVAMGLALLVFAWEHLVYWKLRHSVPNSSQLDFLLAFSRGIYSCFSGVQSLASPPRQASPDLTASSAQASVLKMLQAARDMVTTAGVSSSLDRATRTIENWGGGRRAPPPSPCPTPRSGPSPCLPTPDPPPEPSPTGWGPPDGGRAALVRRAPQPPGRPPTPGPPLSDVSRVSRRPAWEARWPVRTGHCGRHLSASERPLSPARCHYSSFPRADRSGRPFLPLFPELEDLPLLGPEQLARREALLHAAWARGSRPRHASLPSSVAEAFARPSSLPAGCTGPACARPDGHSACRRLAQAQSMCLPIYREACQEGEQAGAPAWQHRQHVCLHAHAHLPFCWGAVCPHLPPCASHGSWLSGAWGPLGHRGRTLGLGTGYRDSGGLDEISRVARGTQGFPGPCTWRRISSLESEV
The series is described as follows: NMDAR agonist assay, [3H]MK-801 binding, NMDAR2C expressing HEK cell membranes. It counts as biochemical. The note with it: 50 μM glutamate; for EC50: read-out: NMDAR2C: log EC50 (converted). As to the method: (§1) Assays were conducted as described by Moskal et al., “GLYX-13: a monoclonal antibody-derived peptide that acts as an N-methyl-D-aspartate receptor modulator,” Neuropharmacology, 49, 1077-87, 2005. These studies were designed to determine if the test compounds act to facilitate NMDAR activation in NMDAR2A, NMDAR2B, NMDAR2C or NMDAR2D expressing HEK cell membranes as measured by increases in [^3H]MK-801 binding.
(§2) In the assay, 300 μg of NMDAR expressing HEK cell membrane extract protein was preincubated for 15 minutes at 25° C. in the presence of saturating concentrations of glutamate (50 μM) and varying concentrations of test compound (1×10^−15M−1×10^−7M), or 1 mM glycine. Following the addition of […] of [^3H]MK-801 (22.5 Ci/mmol), reactions were again incubated for 15 minutes at 25° C. (nonequilibrium conditions). Bound and free [^3H]MK-801 were separated via rapid filtration using a Brandel apparatus.
(§3) In analyzing the data, the DPM (disintegrations per minute) of [^3H]MK-801 remaining on the filter were measured for each concentration of test compound or for 1 mM glycine. The DPM values for each concentration of a ligand (N=2) were averaged. The baseline value was determined from the best fit curve of the DPM values modeled using the GraphPad program and the log(agonist) vs. response (three parameters) algorithm was then subtracted from all points in the dataset. The % maximal [3H]MK-801 binding was then calculated relative to that of 1 mM glycine: all baseline subtracted DPM values were divided by the average value for 1 mM glycine. The EC50 and % maximal activity were then obtained from the best fit curve of the % maximal [3H]MK-801 binding data modelled using the GraphPad program and the log(agonist) vs. response (three parameters) algorithm.
(§4) The tables below summarize the results for the wild type […] NMDAR2A, NMDAR2B, NMDAR2C, and NMDAR2D, and whether the compound is not an agonist (−), is an agonist (+), or is a strong agonist (++), where column A is based on the % maximal [3H]MK-801 binding relative to 1 mM glycine (−=0; <100%=+; and >100%=++); and column B is based on log EC50 values (0=−; ≥1×10^−9 M (e.g., −8)=+; and <1×10^−9 M (e.g., −10)=++).

The target in a further series is T2, NMDAR2D (Homo sapiens, UniProt O15399).
T2 construct: expressed in transfected cells; host or cells: HEK cells (membrane extract)
T2 sequence (O15399 28-1336, species assumed, other chains not shown): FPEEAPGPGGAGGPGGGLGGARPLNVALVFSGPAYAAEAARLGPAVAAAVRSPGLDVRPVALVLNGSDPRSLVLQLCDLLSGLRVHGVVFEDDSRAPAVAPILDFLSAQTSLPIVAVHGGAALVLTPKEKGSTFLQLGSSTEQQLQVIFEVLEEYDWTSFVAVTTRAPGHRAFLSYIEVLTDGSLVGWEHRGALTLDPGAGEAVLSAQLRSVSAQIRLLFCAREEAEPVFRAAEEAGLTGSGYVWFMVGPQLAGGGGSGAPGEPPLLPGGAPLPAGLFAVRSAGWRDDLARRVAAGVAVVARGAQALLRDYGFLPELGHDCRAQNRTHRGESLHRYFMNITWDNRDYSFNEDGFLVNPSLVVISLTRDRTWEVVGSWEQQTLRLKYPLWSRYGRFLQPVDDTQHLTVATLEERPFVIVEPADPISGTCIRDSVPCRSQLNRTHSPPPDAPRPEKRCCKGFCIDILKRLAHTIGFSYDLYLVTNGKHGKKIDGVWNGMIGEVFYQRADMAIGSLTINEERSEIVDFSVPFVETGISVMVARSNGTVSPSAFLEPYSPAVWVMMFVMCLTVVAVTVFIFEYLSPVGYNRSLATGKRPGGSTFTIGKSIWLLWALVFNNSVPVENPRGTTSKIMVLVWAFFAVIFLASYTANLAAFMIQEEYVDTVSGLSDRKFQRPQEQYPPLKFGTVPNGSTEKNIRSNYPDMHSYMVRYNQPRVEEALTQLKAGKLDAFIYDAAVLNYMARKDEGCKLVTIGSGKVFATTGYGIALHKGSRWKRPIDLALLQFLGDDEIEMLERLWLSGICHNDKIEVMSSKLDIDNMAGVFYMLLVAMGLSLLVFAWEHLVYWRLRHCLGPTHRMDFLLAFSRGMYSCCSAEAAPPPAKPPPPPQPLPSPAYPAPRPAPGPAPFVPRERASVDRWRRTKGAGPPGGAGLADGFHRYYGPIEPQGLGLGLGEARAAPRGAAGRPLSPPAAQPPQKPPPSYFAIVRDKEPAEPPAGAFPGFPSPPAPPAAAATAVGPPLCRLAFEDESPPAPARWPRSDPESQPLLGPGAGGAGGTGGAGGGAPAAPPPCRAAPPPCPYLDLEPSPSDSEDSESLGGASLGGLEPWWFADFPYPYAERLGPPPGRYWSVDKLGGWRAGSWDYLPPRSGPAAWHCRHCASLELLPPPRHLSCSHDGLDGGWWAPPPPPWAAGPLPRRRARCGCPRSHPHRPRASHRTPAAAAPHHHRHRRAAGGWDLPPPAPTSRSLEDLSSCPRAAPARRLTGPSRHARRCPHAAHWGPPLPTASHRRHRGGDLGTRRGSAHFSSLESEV
The series is described as follows: NMDAR agonist assay, [3H]MK-801 binding, NMDAR2D expressing HEK cell membranes. It counts as biochemical. The note with it: 50 μM glutamate. The protocol:
as §1, §2
as §3, with “algorithm. […]” for “algorithm.”

A further series addresses T3, NMDAR2A (Homo sapiens, UniProt Q12879).
T3 construct: expressed in transfected cells; host or cells: HEK cells (membrane extract)
Put plainly: NMDAR agonist assay, [3H]MK-801 binding, NMDAR2A expressing HEK cell membranes. To be noted: 50 μM glutamate; for EC50: read-out: NMDAR2A: log EC50 (converted). It counts as biochemical. As to the method: as §1, §2, §3, §4

A further series has as its target T4, NMDAR2B (Homo sapiens, UniProt Q13224).
T4 construct: expressed in transfected cells; host or cells: HEK cells (membrane extract)
Put plainly: NMDAR agonist assay, [3H]MK-801 binding, NMDAR2B expressing HEK cell membranes. It counts as biochemical. To be noted: 50 μM glutamate. The protocol: as §1, §2, §3, §4

In series [2] the test system is rats. Put plainly: Bennett model of mechanical analgesia (sciatic nerve chronic constriction injury). It counts as in vivo, Sprague Dawley rats. The note with it: 150 mg/kg PO. The protocol: The Bennett model of mechanical analgesia is used to assess the analgesic effects of compounds as measured by paw withdrawal threshold. Bennett G J, Xie Y K, “A peripheral mononeuropathy in rat that produces disorders of pain sensation like those seen in man,” Pain 33:87-107, 1988. […] Vehicle animals receive the surgery and then receive vehicle rather than test compound. Animals were tested 1 hr, 24 h and 1 wk post-test compound or vehicle administration.
Male 2-3 month old Sprague Dawley rats were used. Harlan was the supplier for all studies. Rats were housed in Lucite cages with aspen wood chip bedding, maintained on a 12:12 light:dark cycle (lights on at 5 AM), and given ad libitum access to Purina lab chow (USA) and tap water throughout the study.
Rats were anesthetized using inhaled isoflurane (2.5%). Sciatic nerve chronic constriction nerve injury surgery was performed as previously described (Bennett and Xie, 1988). An incision (˜1.5 cm in length) was made with a scalpel blade dorsally through skin on the right hind limb, parallel and posterior to femur. Using a small pointed hemostat, the biceps femoris and gluteus superficialis muscles were separated. Using curved blunt forceps, the common sciatic nerve was isolated and exposed. For the mechanical analgesia studies, the whole sciatic nerve was ligated. Using hemostats/forceps and chromic gut (5-0), the nerve was loosely ligated with a square knot; 3 ligatures, 1 mm apart were placed on the nerve. […] Testing occurred approximately 2 weeks post-surgery.
During testing, rats were acclimated to the surface of a suspended wire mesh grid (1 cm×1 cm, with the wire being 0.3 cm in diameter) for 15-20 min. Starting from the smallest, each Von Frey filament was pressed perpendicularly to the plantar surface of the affected (ipsilateral) hind paw until slightly bent and then held for 6 second. If an obvious hind paw withdrawal or a flinching behavior immediately after the withdrawal of the filament was not observed, the next larger filament was used in the same manner. In case of a response, a lower filament was used. This was repeated until six responses were collected.
For all studies, animals were baselined prior to study start to test for allodynia (defined as a paw withdrawal threshold under 5). A subset of animals was tested with gabapentin (150 mg/kg, PO) to ensure at least 50% analgesia. Once it was confirmed animals were ready for study initiation, animals were balanced across groups. All study investigators were blind to treatment conditions. Animals were dosed with 0.1, 1, 10, or 30 mg/kg of test compound via oral gavage (PO), control sets of animals were dosed with gabapentin (150 mg/kg, PO) or vehicle (0.5% Na-CMC in 0.9% sterile saline, PO). Testing occurred 1 h post-dosing with animals retested 24 hrs and 1 week post-dosing. The percent analgesia calculations for each animal were made using the following equation: % analgesia=[(log(x)−y)/((log(z)−y)]*100, where x=the paw withdrawal threshold for the drug-treated animal in grams, y=the average of the log(x) values for the vehicle treated group, and z=the paw withdrawal threshold for naïve animals in grams (historical value of 15 used). The results for Compound AA-2, where the percentage of analgesia is measured at 1 hour, 24 hours, and 1 week after compound administration are as follows: for 0.1 mg/kg dose: 22.3% at 1 h, 1.6% at 24 h, and 2.3% at 1 wk; for 1 mg/kg dose: 19.2% at 1 h, 10.7% at 24 h, and 11.0% at 1 wk; for 10 mg/kg dose: 38.1% at 1 h, 24.3% at 24 h, and 41.4% at 1 wk; and for 30 mg/kg dose: 24.4% at 1 h, 8.7% at 24 h, and 34.5% at 1 wk.

[3] abbreviates: 1 h post-dose, 0.1 mg/kg, Yes = statistically significant (p<=0.05) from vehicle.
Setting [4] is: 24 h post-dose, 0.1 mg/kg, Yes = statistically significant (p<=0.05) from vehicle.

What is called EC50 is the concentration needed to bring the measured effect to its halfway point.

T3 sequence (Q12879 23-1464, species assumed, other chains not shown): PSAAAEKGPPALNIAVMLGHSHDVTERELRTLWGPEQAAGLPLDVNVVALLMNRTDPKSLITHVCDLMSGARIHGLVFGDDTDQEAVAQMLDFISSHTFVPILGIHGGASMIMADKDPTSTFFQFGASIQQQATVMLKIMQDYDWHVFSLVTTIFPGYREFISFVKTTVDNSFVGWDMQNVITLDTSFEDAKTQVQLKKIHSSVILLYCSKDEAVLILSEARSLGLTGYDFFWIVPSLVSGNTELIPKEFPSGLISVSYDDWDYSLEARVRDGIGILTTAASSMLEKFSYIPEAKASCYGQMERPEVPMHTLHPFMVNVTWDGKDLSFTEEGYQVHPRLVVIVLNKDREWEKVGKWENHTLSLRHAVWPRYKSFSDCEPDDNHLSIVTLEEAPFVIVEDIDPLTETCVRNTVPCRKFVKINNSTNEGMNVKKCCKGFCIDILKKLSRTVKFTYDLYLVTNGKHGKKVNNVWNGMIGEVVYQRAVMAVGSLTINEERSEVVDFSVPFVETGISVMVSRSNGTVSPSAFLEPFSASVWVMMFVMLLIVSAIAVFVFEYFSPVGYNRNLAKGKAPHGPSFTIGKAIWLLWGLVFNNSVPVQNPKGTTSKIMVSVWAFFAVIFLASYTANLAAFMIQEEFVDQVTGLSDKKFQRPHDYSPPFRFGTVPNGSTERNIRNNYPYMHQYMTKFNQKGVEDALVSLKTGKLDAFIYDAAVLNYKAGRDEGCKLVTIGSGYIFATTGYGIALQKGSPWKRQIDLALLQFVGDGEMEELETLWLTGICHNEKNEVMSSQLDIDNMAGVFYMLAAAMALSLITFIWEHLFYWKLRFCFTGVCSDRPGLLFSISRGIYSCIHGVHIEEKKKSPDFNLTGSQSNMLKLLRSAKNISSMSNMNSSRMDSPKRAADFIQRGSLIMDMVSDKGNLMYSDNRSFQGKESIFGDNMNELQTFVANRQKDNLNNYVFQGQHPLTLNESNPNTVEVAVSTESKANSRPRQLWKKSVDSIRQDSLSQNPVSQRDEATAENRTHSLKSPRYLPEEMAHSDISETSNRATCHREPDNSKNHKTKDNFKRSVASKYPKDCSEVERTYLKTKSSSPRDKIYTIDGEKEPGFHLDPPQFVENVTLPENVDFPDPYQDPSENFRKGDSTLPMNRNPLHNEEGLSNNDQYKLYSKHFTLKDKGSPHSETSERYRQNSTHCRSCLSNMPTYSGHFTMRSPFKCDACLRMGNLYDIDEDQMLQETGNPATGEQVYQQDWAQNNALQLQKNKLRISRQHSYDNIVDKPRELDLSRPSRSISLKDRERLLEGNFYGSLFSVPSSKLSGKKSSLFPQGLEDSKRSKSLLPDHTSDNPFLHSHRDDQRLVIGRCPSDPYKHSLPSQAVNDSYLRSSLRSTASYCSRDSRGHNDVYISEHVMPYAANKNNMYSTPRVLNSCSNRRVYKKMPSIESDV

In the case of `COc1ccc(CN2CC3(CCNC(=O)C3)C2=O)cc1` (racemic) [AA-rac, 2-(4-methoxybenzyl)-2,7-diazaspiro[3.5]nonane-1,6-dione], the Significance vs. vehicle result in the series on rats [1] (setting [3]) and in the series on rats [1] (setting [4]) was “Yes” each time. The CI in the series “IV pharmacokinetics” is 5.28 mL/min/kg. Further, the “NMDAR2C A: % maximal [3H]MK-801 binding relative to 1 mM glycine” value at NMDAR2C is “− (−=0)”. The EC50 at NMDAR2C and at NMDAR2A was greater than 100 nM throughout. Besides, at NMDAR2D, the “NMDAR2D: % maximal [3H]MK-801 binding relative to 1 mM glycine” value is listed as “+ (<100%=+)”.
Regarding `C[C@@H](O)[C@@H](C(=O)NCc1ccccc1)N1CC2(CCNC(=O)C2)C1=O` (single isomer, unassigned) [CB], in the series “IV pharmacokinetics”, the CI amounted to 25.31 mL/min/kg. Also, at NMDAR2A, the “NMDAR2A: % maximal [3H]MK-801 binding relative to 1 mM glycine” value is “− (−=0)”. Also, the “NMDAR2B: % maximal [3H]MK-801 binding relative to 1 mM glycine” value at NMDAR2B is recorded as “+ (<100%=+)”.
In the case of `C[C@@H](O)[C@@H](C(=O)N(C)C)N1CC2(CCNC(=O)C2)C1=O` (single isomer, unassigned) [CC], in “IV pharmacokinetics”, the CI is given as 15.65 mL/min/kg. Also, at NMDAR2A (read-out: NMDAR2A: % maximal [3H]MK-801 binding relative to 1 mM glycine), the Emax turned out to be 0%. Also, the half-maximal effective concentration (EC50) on NMDAR2A is greater than 100 nM.
In the series “IV pharmacokinetics”, `COc1ccc(CN2CC3(CCN(C)C(=O)C3)C2=O)cc1` (single isomer, unassigned) [CI, 2-(4-methoxybenzyl)-7-methyl-2,7-diazaspiro[3.5]nonane-1,6-dione] yielded a CI of 32 mL/min/kg.
Regarding `CCN1CCC2(CC1=O)CN(Cc1ccc(OC)cc1)C2=O` (single isomer, unassigned) [CL, 7-ethyl-2-(4-methoxybenzyl)-2,7-diazaspiro[3.5]nonane-1,6-dione], the CI in the series “IV pharmacokinetics” is 41.73 mL/min/kg. For the same compound, the “NMDAR2A: % maximal [3H]MK-801 binding relative to 1 mM glycine” value on NMDAR2A is given as “+ (<100%=+)”. Also, the “NMDAR2B: % maximal [3H]MK-801 binding relative to 1 mM glycine” value at NMDAR2B is given as “+ (<100%=+)”.
Take `COc1ccc(CN2C[C@]3(CCNC(=O)C3)C2=O)cc1` [AA-1, 2-(4-methoxybenzyl)-2,7-diazaspiro[3.5]nonane-1,6-dione]: the Significance vs. vehicle entry in the series on rats [1] (setting [3]) and with rats [1] (setting [4]) was “Yes” throughout. In addition, the CI in the series “IV pharmacokinetics” is listed as 9.69 mL/min/kg. Moreover, on NMDAR2C, the “NMDAR2C A: % maximal [3H]MK-801 binding relative to 1 mM glycine” value was “− (−=0)”. In addition, the EC50 on NMDAR2C and on NMDAR2A was greater than 100 nM in each case. The “NMDAR2D: % maximal [3H]MK-801 binding relative to 1 mM glycine” value at NMDAR2D is recorded as “+ (<100%=+)”.
With `COc1ccc(CN2C[C@@]3(CCNC(=O)C3)C2=O)cc1` [Compound AA-2, 2-(4-methoxybenzyl)-2,7-diazaspiro[3.5]nonane-1,6-dione], the Significance vs. vehicle result in the series on rats [1] (setting [3]) and with rats [1] (setting [4]) was “Yes” each time. For the same compound, in the series “IV pharmacokinetics”, the CI stood at 9.82 mL/min/kg. Moreover, the “NMDAR2C A: % maximal [3H]MK-801 binding relative to 1 mM glycine” value on NMDAR2C is “− (−=0)”. The concentration giving a half-maximal response (EC50) on NMDAR2C and at NMDAR2A was greater than 100 nM throughout. Besides, on NMDAR2D, the “NMDAR2D: % maximal [3H]MK-801 binding relative to 1 mM glycine” value is given as “+ (<100%=+)”.
As for `CNCCC(Oc1ccc(C(F)(F)F)cc1)c1ccccc1` (centres unmarked) [Fluoxetine, fluoxetine, reference compound], the Significance vs. vehicle entry with rats [1] (1 h post-dose, 20 mg/kg, dosed 3 times (24 h, 5 h and 1 h) prior to testing, positive control) is listed as “Yes”.
For the compound `NCC1(CC(=O)O)CCCCC1` [gabapentin], the entries for the “% analgesia, control group of the study” value with rats [2] (1 week post-administration), with rats [2] (1 h post-administration) and with rats [2] (24 h post-administration) were “under 5%”, “at least 50%” and “under 5%”, respectively. In addition, the figures for the “% analgesia, example (typical) control values” with rats [2] (1 wk), in the series on rats [2] (1 h) and in the series on rats [2] (24 h) were 0%, 72% and 16%, respectively.
